Results from PubChem BioAssay (NCI).
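Briefly, cells in 96-well plates were exposed to five compound concentrations for 48 h, and endpoints were estimated by linear interpolation. GI50: concentration for 50% inhibition of growth. TGI marks complete inhibition of growth.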

How the values were obtained:
Test in all cases: inhibition of tumour cell growth, NCI panel, 48 h
NCI-H460 lung = system: NCI-H460 lung
CAKI-1 renal = system: CAKI-1 renal
HCT-15 colon = system: HCT-15 colon
OVCAR-8 ovarian = system: OVCAR-8 ovarian
UACC-257 melanoma = system: UACC-257 melanoma
A549 NSCLC = system: A549 NSCLC
OVCAR-4 ovarian = system: OVCAR-4 ovarian
KM12 colon = system: KM12 colon
TK-10 renal = system: TK-10 renal
NCI-H23 lung = system: NCI-H23 lung

SMILES	TGI (NCI-H460 lung) [µM]	TGI (CAKI-1 renal) [µM]	TGI (HCT-15 colon) [µM]	TGI (OVCAR-8 ovarian) [µM]	TGI (UACC-257 melanoma) [µM]	TGI (A549 NSCLC) [µM]	TGI (OVCAR-4 ovarian) [µM]	TGI (KM12 colon) [µM]	TGI (TK-10 renal) [µM]	TGI (NCI-H23 lung) [µM]	GI50 (NCI-H460 lung) [µM]	GI50 (CAKI-1 renal) [µM]	GI50 (HCT-15 colon) [µM]	GI50 (OVCAR-8 ovarian) [µM]	GI50 (UACC-257 melanoma) [µM]	GI50 (A549 NSCLC) [µM]	GI50 (NCI-H23 lung) [µM]	GI50 (OVCAR-4 ovarian) [µM]	GI50 (KM12 colon) [µM]	GI50 (TK-10 renal) [µM]
CC1=C2C(O)C(C(C)CO)C(O)CC2(C)C(O)CC1 (stereo unspecified)	> 100	> 100	> 100	> 100	> 100	> 100	> 100	> 100	> 100											
Cc1cc2nc3c(=O)n(C)c(=O)nc-3n(-c3ccc(Cl)cc3)c2cc1C	10.6	48.8	21.9	43.7	20	16.4	19.8	> 100	92	26.2										
CN1CCN(Cc2ccc(NC(=O)c3cncc(C#Cc4cnc(N)c5ccc(F)cc45)c3)cc2C(F)(F)F)CC1	8.95	4.57	4.62	7.09	8.63	6.46	4.23	4.63	6.68	7.86	1.08	1.1	1.03	2.31	4.08	2.04	2.4	0.667	0.0282	2.44
O=[N+]([O-])c1ccc2[nH]cc(-c3c4ccsc4cc4[nH]c5ccc([N+](=O)[O-])cc5c34)c2c1	4.13	9.94	9.68	19.7	10.5	5.4	9.38	4.21	18.5	5.62	0.922	0.758	0.735	1.25	2.92	1.12	1.21	1.8	0.77	2.85
O=C1C=C(c2c(O)ccc3ccccc23)c2ccccc2C1=O	26.8	24	13.1	5.3	6.49	25.7	3.79	11.8	25.8	4.92										
CC(C)=CC(C(O)c1ccccc1)S(=O)(=O)c1nccn1C (stereo unspecified)	> 100		> 100	> 100	> 100	> 100	> 100	> 100	> 100	> 100										
C=CCCCCCCCCCCCC1CCC(CC)N1 (stereo unspecified)	40.7	25.4	12.9		28	24.8	21.3	13.1	32.1	28.6										
CCN(CC)c1ccc(N=Nc2ccc(-c3nc4cccnc4o3)cc2)cc1		> 100	> 100	> 100	> 100	> 100	> 100	> 100	> 100	> 100										
S=C(Nc1ccc(-c2nc3ccccc3[nH]2)cc1)NC1CCCCC1		55.2	37.9	83.7	57.1			63.6	80.6	68.3			16.2	26.3	26.6	40.3	23.2		22.5	22.8
CCCC(=O)c1c(NOC2OC(COC(C)=O)C(OC(C)=O)C(OC(C)=O)C2OC(C)=O)nc(OC)n(C)c1=O (stereo unspecified)	> 100		> 100	> 100		> 100	> 100	> 100	> 100	> 100										
Cc1nc2ccc(C(F)(F)F)cc2nc1Nc1ccc(Cl)c(Cl)c1	10.5		18.5	25.4	25.4	21.6			31.7	26.4										
N#CC(C#N)=C(N)/C(C#N)=C\c1ccnc2ccccc12	> 100	92.1		55.7	58.6	> 100	> 100	> 100	> 100	40.5										
C=CCn1c(C)nc2cc(Nc3nc(Nc4ccc5nc(C)n(CC=C)c5c4)c4ccccc4n3)ccc21		3.03		0.535			0.583	0.659	2.1	4.57		1.61		0.229			1.88	0.24	0.254	0.78
CN(C)CCNc1nc2ccccc2c2c1c1c(n2Cc2ccccc2)-c2ccccc2C1=O	26.7	37.1	26.1	52.2	42.6	46.6	27			39.7	10.5	18	10.7	6.14	19.9	14.6	14.8	12.6		
O=C1C(Br)=C[C@H]2C3C=CC(Br)(C3=O)[C@@H]12 (stereo partly specified)		24	24.6	26	24.8	76.9	29.4	24.4		25										
CC1(C)C(=O)N(c2ccccc2)C(=O)N1c1nc2ccccc2[nH]1	> 100	> 100	> 100	> 100	> 100	> 100		> 100	> 100	> 100										
N#CCCc1nc2ccc(Br)cc2c(=O)n1CCO		> 100	> 100	> 100	> 100	> 100	> 100	> 100	> 100	> 100										
CCN(CC)CCC1CC/C(=C\c2ccc(OC)cc2)C1=O (stereo unspecified)		> 100	> 100	> 100	77.6	> 100	> 100	> 100	> 100											
O=C(Nc1ccccc1)c1ccc(Cl)c([N+](=O)[O-])c1	98.9	40.4	46.5	39.6	48.4	> 100		12.7	> 100	63.6										
COc1cc(-c2nc3ccc(C)cc3[nH]2)ccc1OCC(=O)N=Nc1c(O)[nH]c2ccccc12	3.73	3.07	> 100				3.25	3.54	11.1	3.48	1.85	1.66	4.18				1.81	1.75	1.83	3.21

SMILES	TGI (NCI-H460 lung) [µM]	TGI (CAKI-1 renal) [µM]	TGI (HCT-15 colon) [µM]	TGI (OVCAR-8 ovarian) [µM]	TGI (UACC-257 melanoma) [µM]	TGI (A549 NSCLC) [µM]	TGI (OVCAR-4 ovarian) [µM]	TGI (KM12 colon) [µM]	TGI (TK-10 renal) [µM]	TGI (NCI-H23 lung) [µM]	GI50 (NCI-H460 lung) [µM]	GI50 (CAKI-1 renal) [µM]	GI50 (HCT-15 colon) [µM]	GI50 (OVCAR-8 ovarian) [µM]	GI50 (UACC-257 melanoma) [µM]	GI50 (A549 NSCLC) [µM]	GI50 (NCI-H23 lung) [µM]	GI50 (OVCAR-4 ovarian) [µM]	GI50 (KM12 colon) [µM]	GI50 (TK-10 renal) [µM]
CC(=O)CC1CCC(=O)CCC(=O)OC(CC(C)=O)CCC(=O)CCC(=O)O1 (stereo unspecified)	> 100		> 100	> 100	> 100	> 100	> 100	> 100	> 100	> 100										
COc1cc(-c2cc(=O)c3cc4c(cc3[nH]2)OCO4)cc(OC)c1OC	> 100	> 100	> 100	> 100		> 100	> 100	> 100	> 100	> 100										
O=C(Oc1ccc(O)c2c(=O)n3c(cc12)[nH]c1ccccc13)c1ccccc1	> 100		28.2	32.5	42.2	66.8	> 100	> 100	40.8	37.7	81.7		12.9	11.1	16.6	24	16	49	34.7	18.8
CCOC(=O)C(C)(C)Oc1ccc2c(=O)cc(-c3ccc(Cl)cc3)oc2c1	> 100		> 100	> 100	> 100	> 100	> 100		> 100	> 100										
CCOC(=O)CCC(=O)C1c2cccc(O)c2C(=O)c2c(O)cccc21	1.4	4.99		3.4	3.3	2.18	1.86	2.2	4.76	3.09										
O=[N+]([O-])c1c(/C=N/Nc2ccccc2)oc(-c2ccc3c(c2)OCO3)c1-c1ccc2c(c1)OCO2		> 100		> 100	> 100	> 100	> 100		> 100	> 100										
Nc1c(C(=O)c2ccccc2)sc2nc(-c3cccs3)ccc12	2.56	20.1	10.4	> 100		4.8	6.72	5.6	5.79	10.1	0.283	0.564	0.0552	0.453		0.492	0.331	0.902	0.103	0.414
Oc1ccc(Br)cc1Sc1cc(Br)ccc1O	20	45.5	22	24.7	17.7	22	18.1	33.3		11.8	5.1	18.7	5.93	5.89	5.2	5.09	3.14	4.72	17	
CC(=O)N/C(=C\c1ccc(/C=C(\NC(C)=O)c2nc3ccc(Cl)cc3[nH]2)cc1)c1nc2ccccc2[nH]1	> 100	> 100	> 100	> 100		> 100		> 100	> 100	> 100										
COC1=CC23C=CC1[C@@H](c1ccccc1)C2=C(C)C(=O)N3C(=O)NC1CCCCC1 (stereo partly specified)	42.2	45.1	29.1	64.6	77.4	79.8		> 100	84.3	57.5										
Cc1cc2nc3c(C(OC4OC(CO)C(O)C(O)C4O)C(O)CO)nn(-c4ccccc4)c3nc2cc1C (stereo unspecified)	> 100		> 100	> 100	> 100		> 100	> 100	> 100	> 100										
COP1(=O)CC2C(Cl)(Cl)C2(C)C1 (stereo unspecified)	> 100			> 100		> 100	> 100	> 100	> 100	> 100										
Nc1ccc(C(=O)N/C(=C\C=C\c2ccco2)c2nc3[nH]c(=S)[nH]c(=O)c3[nH]2)cc1		> 100	> 100	> 100		> 100	> 100	> 100	> 100	> 100										
CCN(CC)CCCCC1CCN(CC(=O)N2CC(C)C(=O)Nc3ccccc32)CC1 (stereo unspecified)	> 100	> 100	> 100		> 100	> 100	> 100			> 100										
CCCCCCC/C=C/[C@H]1O[C@]23C(=O)C[C@@]4(C[C@@H](OC5OC(CO)C(O)C(O)C5O)C[C@@H]4[C@H]2C=C1C)OC3=O (stereo partly specified)	16.8		9.43	> 33.3	12.4	> 33.3	8.07	11.6	12.6	15.8	6.63		2.53	6.08	5.21	8.48	5.75	3.37	4.66	6.14
O=C(C(O)c1cn(Cc2ccccc2)c2ccccc12)N1CCCCC1 (stereo unspecified)			> 100	> 100	> 100	> 100		> 100	> 10	> 10										
O=C(O)C1CCc2ccc3ccccc3c2C1c1cccc2ccccc12 (stereo unspecified)	38.2	> 100	45.9	52.1	59.4	36.4	90.9	37.8	> 100											
c1cnc2c(c1)-n1cccc1C1(CCSCC1)NN2	> 100	> 100	> 100	> 100	> 100	> 100	> 100	> 100	> 100											
CC1(C)C=CC[C@]2(C)[C@H]3CC[C@@H]4[C@H]5[C@H](C(=O)/C=C/c6cccnc6)CC[C@]5(CO)CC[C@@]4(C)[C@]3(C)CC[C@@H]12	2.41	2.33		3.22	2.91	2.49	3.41	2.42	3.26		1.03	1.06		0.666	1.39	0.972		1.47	1.01	1.81
